Assay results reported in patent US10287253B2, “Substituted pyrimidines containing acidic groups as TLR7 modulators” (Apros Therapeutics, Inc., priority 2016, dated 2019).

Tests used:
[1] = Pharmacokinetics experiments: mouse liver-to-serum concentration (L:S); format: in vivo; settings: BALB/c mice, 10 mg/kg p.o., 5 hour post dose
Method: BALB/c mice were dosed p.o. with 10 mg/kg compound formulated in 0.5% carboxy methycellulose+0.5% Tween-80 suspension. Mice were bled retro-orbitally at different time points post dose. Blood was processed into serum by centrifugation followed by protein precipitation, reverse-phase gradient elution and MRM detection via ESI+mass spectrometry to determine compound concentration. Animals were sacrificed after the final blood collection (5 hour), liver removed and flash frozen in liquid nitrogen for tissue PK analyses. The liver-to-serum concentration (L:S) at 5 hour post dose is one parameter for identifying compounds with potential enrichment in liver.
Mouse liver-to-serum concentration (L:S) table below provides results.

[2] = target: human TLR7 (hTLR7) (Homo sapiens (Human), UniProt Q9NYK1); test: HEK TLR7 assay (HEK-Blue hTLR7 cells, NF-kB/AP-1 SEAP reporter); format: cell-based; settings: for EC50: HEK-Blue hTLR7 cells, 16 h incubation, SEAP read at 620-655 nm
Excerpt: HEK-Blue™ TLR7 cells were purchased from Invivogen (San Diego, Calif.). The following description was taken from the product information sheet.
“HEK-Blue™ hTLR7 cells are designed for studying the stimulation of human TLR7 (hTLR7) by monitoring the activation of NF-kB. HEK-Blue™ hTLR7 cells were obtained by co-transfection of the hTLR7 gene and an optimized secreted embryonic alkaline phosphatase (SEAP) reporter gene into HEK293 cells. The SEAP reporter gene is placed under the control of the IFN-b minimal promoter fused to five NF-kB and AP-1-binding sites. Stimulation with a TLR7 ligand activates NF-kB and AP-1 which induce the production of SEAP, which is detected by the HEK-Blue™ Detection cell culture medium.”
A typical assay protocol involved the following steps: • 1. Cells were cultured according to the product information sheet. • 2. 10 mM compound stock in DMSO were first diluted to 3 mM and then 3-fold serially diluted using DMSO to afford a 10-pt dilution. • 3. 3 μl of the diluted DMSO were added to 57 μl HEK-Blue™ Detection media for a further 20-fold dilution. • 4. 10 μl of the diluted compound in assay media were added into 40 μl cell culture (in HEK-Blue™ Detection media) in 384-well plate. Final cell concentration=8,000 cells per well. • 5. The plates were incubated at 37° C. in 5% CO2 for 16 h. SEAP was determined using a spectrophotometer at 620-655 nm.

Chain of human TLR7 (hTLR7) (Q9NYK1 27-1049): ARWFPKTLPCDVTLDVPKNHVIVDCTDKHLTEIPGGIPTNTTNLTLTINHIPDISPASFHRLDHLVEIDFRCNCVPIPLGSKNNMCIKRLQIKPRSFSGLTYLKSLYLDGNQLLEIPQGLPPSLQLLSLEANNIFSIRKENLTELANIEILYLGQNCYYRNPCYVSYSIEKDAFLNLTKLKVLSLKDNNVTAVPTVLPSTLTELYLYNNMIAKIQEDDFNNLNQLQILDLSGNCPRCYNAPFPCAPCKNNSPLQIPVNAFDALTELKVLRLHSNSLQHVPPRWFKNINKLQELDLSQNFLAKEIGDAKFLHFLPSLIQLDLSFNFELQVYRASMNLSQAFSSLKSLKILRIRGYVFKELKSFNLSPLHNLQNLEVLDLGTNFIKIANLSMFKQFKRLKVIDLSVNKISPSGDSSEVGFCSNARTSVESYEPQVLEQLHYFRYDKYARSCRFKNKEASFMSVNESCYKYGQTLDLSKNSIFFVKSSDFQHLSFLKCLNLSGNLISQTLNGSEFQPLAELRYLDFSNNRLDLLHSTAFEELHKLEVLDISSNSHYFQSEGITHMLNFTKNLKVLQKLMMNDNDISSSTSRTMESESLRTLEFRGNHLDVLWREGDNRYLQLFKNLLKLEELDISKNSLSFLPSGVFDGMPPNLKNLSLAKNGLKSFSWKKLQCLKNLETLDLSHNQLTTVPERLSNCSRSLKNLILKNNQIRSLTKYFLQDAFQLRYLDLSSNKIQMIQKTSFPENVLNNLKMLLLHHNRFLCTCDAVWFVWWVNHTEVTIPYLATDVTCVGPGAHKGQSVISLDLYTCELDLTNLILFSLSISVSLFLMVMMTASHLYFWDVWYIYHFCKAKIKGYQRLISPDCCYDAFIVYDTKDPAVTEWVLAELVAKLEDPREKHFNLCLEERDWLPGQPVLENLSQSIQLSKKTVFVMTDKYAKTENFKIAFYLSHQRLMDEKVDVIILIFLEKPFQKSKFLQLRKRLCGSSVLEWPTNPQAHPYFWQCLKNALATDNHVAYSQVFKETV

SMILES	L:S at 5 hr (liver-to-serum concentration) [1]	EC50 [2] [nM]	potency of (S)-enantiomer relative to (R)-enantiomer (Compound 20C) in the HEK-TLR7 assay ([2]; Compound 20 vs Compound 20C) [fold]
CCCCNc1nc(N)nc(C)c1Cc1cc(B(O)O)ccc1OC [Compound 24, (3-((2-amino-4-(butylamino)-6-methylpyrimidin-5-yl)methyl)-4-methoxyphenyl)boronic acid]	B (B = 10-100 represents moderate liver-enrichment)	< 100	
CCCCNc1nc(N)nc(CCC(=O)O)c1Cc1ccccc1OC [Compound 15, 3-(2-amino-6-(butylamino)-5-(2-methoxybenzyl)pyrimidin-4-yl)propanoic acid]	B (B = 10-100 represents moderate liver-enrichment)	100 to 1000	
CCCCNc1nc(N)nc(CCC(=O)O)c1Cc1cc(Cc2nn[nH]n2)ccc1OC [Compound 40, 3-(5-(5-((2H-tetrazol-5-yl)methyl)-2-methoxybenzyl)-2-amino-6-(butylamino)pyrimidin-4-yl)propanoic acid]	A (A = >100 represents high liver-enrichment)	100 to 1000	
CCCC[C@@H](CC(=O)O)Nc1nc(N)nc(CCC(=O)O)c1Cc1cc(Cc2nn[nH]n2)ccc1OC [Compound 46, (S)-3-((5-(5-((2H-tetrazol-5-yl)methyl)-2-methoxybenzyl)-2-amino-6-(2-carboxyethyl)-pyrimidin-4-yl)amino)heptanoic acid]	B (B = 10-100 represents moderate liver-enrichment)	100 to 1000	
CCCC[C@@H](CC(=O)O)Nc1nc(N)nc(C)c1Cc1cc(Cc2nn[nH]n2)ccc1OC [Compound 20, (S)-3-((5-(5-((2H-tetrazol-5-yl)methyl)-2-methoxybenzyl)-2-amino-6-methylpyrimidin-4-yl)amino)heptanoic acid]	A (A = >100 represents high liver-enrichment)	100 to 1000	> 10
CCCCNc1nc(N)nc(C)c1Cc1cc(S(=O)(=O)O)ccc1OC [Compound 17, 3-((2-amino-4-(butylamino)-6-methylpyrimidin-5-yl)methyl)-4-methoxybenzenesulfonic acid]	B (B = 10-100 represents moderate liver-enrichment)	< 100	
CCCCNc1nc(N)nc(C)c1Cc1cc(P(=O)(O)O)ccc1OC [Compound 12, (3-((2-amino-4-(butylamino)-6-methylpyrimidin-5-yl)methyl)-4-methoxyphenyl)phosphonic acid]	B (B = 10-100 represents moderate liver-enrichment)	100 to 1000	
CCCC[C@@H](CCSC)Nc1nc(N)nc(C)c1Cc1cc(-c2nn[nH]n2)ccc1OC [Compound 34, (S)-5-(2-methoxy-5-(2H-tetrazol-5-yl)benzyl)-6-methyl-N^4-(1-(methylthio)heptan-3-yl)pyrimidine-2,4-diamine]	A (A = >100 represents high liver-enrichment)	< 100	
CCCC[C@@H](CCOC)Nc1nc(N)nc(C)c1Cc1cc(Cc2nn[nH]n2)ccc1OC [Compound 32, (S)-5-(5-((2H-tetrazol-5-yl)methyl)-2-methoxybenzyl)-N^4-(1-methoxyheptan-3-yl)-6-methylpyrimidine-2,4-diamine]	A (A = >100 represents high liver-enrichment)	< 100	
CCCCNc1nc(N)nc(C)c1Cc1cc(C(C)(C)c2nn[nH]n2)ccc1OC [Compound 10, 5-(5-(2-(2H-tetrazol-5-yl)propan-2-yl)-2-methoxybenzyl)-N4-butyl-6-methylpyrimidine-2,4-diamine]	B (B = 10-100 represents moderate liver-enrichment)	100 to 1000	
CCCC[C@@H](CC(=O)O)Nc1nc(N)nc(CCC(=O)O)c1Cc1ccccc1OC [Compound 29, (S)-3-((2-amino-6-(2-carboxyethyl)-5-(2-methoxybenzyl)pyrimidin-4-yl)amino)heptanoic acid]	A (A = >100 represents high liver-enrichment)	100 to 1000	
CCCCNc1nc(N)nc(CCC(=O)O)c1Cc1cc(C(C)(C)C(=O)O)ccc1OC [Compound 43, 2-(3-((2-amino-4-(butylamino)-6-(2-carboxyethyl)pyrimidin-5-yl)methyl)-4-methoxy-phenyl)-2-methylpropanoic acid]	A (A = >100 represents high liver-enrichment)	1000 to 10000	
CCCCNc1nc(N)nc(C)c1Cc1cc(-c2nn[nH]n2)ccc1OC [Compound 11, N4-butyl-5-(2-methoxy-5-(2H-tetrazol-5-yl)benzyl)-6-methylpyrimidine-2,4-diamine]	A (A = >100 represents high liver-enrichment)	100 to 1000	
CCCC[C@@H](CC(=O)O)Nc1nc(N)nc(C)c1Cc1ccccc1OC [Compound 41, (S)-3-((2-amino-5-(2-methoxybenzyl)-6-methylpyrimidin-4-yl)amino)heptanoic acid]	B (B = 10-100 represents moderate liver-enrichment)	100 to 1000	
CCCC[C@@H](CC(=O)O)Nc1nc(N)nc(C)c1Cc1cc(C(=O)NCCCP(=O)(O)O)ccc1OC [Compound 44, (S)-3-((2-amino-5-(2-methoxy-S-((3-phosphonopropyl)carbamoyl)benzyl)-6-methyl-pyrimidin-4-yl)amino)heptanoic acid]	B (B = 10-100 represents moderate liver-enrichment)	100 to 1000	
CCCCNc1nc(N)nc(C)c1Cc1cc(Cc2nn[nH]n2)ccc1OC [Compound 3, 5-(5-((2H-tetrazol-5-yl)methyl)-2-methoxybenzyl)-N4-butyl-6-methylpyrimidine-2,4-diamine]	A (A = >100 represents high liver-enrichment)	100 to 1000	
CCCCNc1nc(N)nc(C)c1Cc1cc(C(C)(C)C(=O)O)ccc1OC [Compound 9, 2-(3-((2-amino-4-(butylamino)-6-methylpyrimidin-5-yl)methyl)-4-methoxyphenyl)-2-methylpropanoic acid]	A (A = >100 represents high liver-enrichment)	100 to 1000	
CCCCNc1nc(N)nc(C)c1Cc1cc(C2(c3nn[nH]n3)CC2)ccc1OC [Compound 13, 5-(5-(1-(2H-tetrazol-5-yl)cyclopropyl)-2-methoxybenzyl)-N4-butyl-6-methylpyrimidine-2,4-diamine]	B (B = 10-100 represents moderate liver-enrichment)	100 to 1000	
CCCC[C@@H](CCSC)Nc1nc(N)nc(C)c1Cc1cc(C(C)(C)C(=O)O)ccc1OC [Compound 33, (S)-2-(3-((2-amino-4-methyl-6-((1-(methylthio)heptan-3-yl)amino)pyrimidin-5-yl)methyl)-4-methoxyphenyl)-2-methylpropanoic acid]	A (A = >100 represents high liver-enrichment)	< 100	
CCCC[C@@H](CC(=O)O)Nc1nc(N)nc(C)c1Cc1cc(C(C)(C)C(=O)O)ccc1OC [Compound 42, (S)-3-((2-amino-5-(5-(2-carboxypropan-2-yl)-2-methoxybenzyl)-6-methylpyrimidin-4-yl)amino)heptanoic acid]	A (A = >100 represents high liver-enrichment)	100 to 1000	
CCCC[C@@H](CC(=O)O)Nc1nc(N)nc(CCC(=O)O)c1Cc1cc(C(C)(C)C(=O)O)ccc1OC [Compound 45, (S)-3-((2-amino-6-(2-carboxyethyl)-5-(5-(2-carboxypropan-2-yl)-2-methoxy-benzyl)pyrimidin-4-yl)amino)heptanoic acid]	A (A = >100 represents high liver-enrichment)	1000 to 10000	
